Measured values from ChEMBL document CHEMBL5465560, “Selectivity Literature for EUbOPEN Chemogenomic Library” (2024).

Tests used:
[1] = target: T1, Receptor-interacting serine/threonine-protein kinase 1 (Homo sapiens) (UniProt Q13546); test: Selectivity interaction (KinomeScan (DiscoverX)) EUB0000045b RIPK1
T1 sequence (whole entry): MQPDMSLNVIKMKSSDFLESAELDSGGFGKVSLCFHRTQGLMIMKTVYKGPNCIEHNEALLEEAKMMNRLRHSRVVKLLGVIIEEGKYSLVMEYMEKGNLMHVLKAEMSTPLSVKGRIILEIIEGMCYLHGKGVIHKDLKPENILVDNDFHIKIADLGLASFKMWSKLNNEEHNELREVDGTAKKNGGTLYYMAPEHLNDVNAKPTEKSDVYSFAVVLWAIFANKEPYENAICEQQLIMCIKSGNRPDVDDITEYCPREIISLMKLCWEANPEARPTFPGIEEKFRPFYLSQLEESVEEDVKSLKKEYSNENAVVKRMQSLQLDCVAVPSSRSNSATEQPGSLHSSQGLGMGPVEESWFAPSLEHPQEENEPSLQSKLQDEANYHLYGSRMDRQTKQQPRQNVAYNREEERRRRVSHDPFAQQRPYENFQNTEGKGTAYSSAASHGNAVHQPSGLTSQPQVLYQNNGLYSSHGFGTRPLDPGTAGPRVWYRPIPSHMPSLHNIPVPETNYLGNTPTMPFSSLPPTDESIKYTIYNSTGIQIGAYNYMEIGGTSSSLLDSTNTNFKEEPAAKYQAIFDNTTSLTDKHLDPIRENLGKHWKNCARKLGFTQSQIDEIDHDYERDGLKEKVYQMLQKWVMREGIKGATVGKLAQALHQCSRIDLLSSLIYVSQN

[2] = target: T2, Beta-adrenergic receptor kinase 1 (Homo sapiens) (UniProt P25098); test: Selectivity interaction (KinomeScan (DiscoverX)) EUB0001079a ADRBK1; conditions: at 1 µM
T2 sequence (whole entry): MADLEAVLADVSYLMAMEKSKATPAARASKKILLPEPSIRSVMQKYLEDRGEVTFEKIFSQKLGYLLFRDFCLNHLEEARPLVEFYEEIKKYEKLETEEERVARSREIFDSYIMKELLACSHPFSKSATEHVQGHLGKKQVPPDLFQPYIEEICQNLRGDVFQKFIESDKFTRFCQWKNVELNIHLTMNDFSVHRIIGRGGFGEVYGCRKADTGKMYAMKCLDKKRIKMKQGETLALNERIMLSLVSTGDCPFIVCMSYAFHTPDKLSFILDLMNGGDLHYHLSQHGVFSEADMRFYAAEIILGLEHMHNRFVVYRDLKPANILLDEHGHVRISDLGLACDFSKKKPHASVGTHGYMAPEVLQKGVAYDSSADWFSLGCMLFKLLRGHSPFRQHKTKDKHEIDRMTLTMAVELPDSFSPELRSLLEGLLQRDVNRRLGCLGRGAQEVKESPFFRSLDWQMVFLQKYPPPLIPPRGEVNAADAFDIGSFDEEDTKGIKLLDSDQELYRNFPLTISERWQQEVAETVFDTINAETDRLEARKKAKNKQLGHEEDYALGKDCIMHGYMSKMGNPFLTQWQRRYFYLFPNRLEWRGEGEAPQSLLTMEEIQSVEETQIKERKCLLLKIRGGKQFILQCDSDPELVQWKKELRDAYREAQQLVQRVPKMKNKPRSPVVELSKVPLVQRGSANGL

[3] = target: T3, Cyclin-dependent kinase-like 5 (Homo sapiens) (UniProt O76039); test: Selectivity interaction (KinomeScan (DiscoverX)) EUB0001619a CDKL5; conditions: at 1 µM
T3 sequence (whole entry): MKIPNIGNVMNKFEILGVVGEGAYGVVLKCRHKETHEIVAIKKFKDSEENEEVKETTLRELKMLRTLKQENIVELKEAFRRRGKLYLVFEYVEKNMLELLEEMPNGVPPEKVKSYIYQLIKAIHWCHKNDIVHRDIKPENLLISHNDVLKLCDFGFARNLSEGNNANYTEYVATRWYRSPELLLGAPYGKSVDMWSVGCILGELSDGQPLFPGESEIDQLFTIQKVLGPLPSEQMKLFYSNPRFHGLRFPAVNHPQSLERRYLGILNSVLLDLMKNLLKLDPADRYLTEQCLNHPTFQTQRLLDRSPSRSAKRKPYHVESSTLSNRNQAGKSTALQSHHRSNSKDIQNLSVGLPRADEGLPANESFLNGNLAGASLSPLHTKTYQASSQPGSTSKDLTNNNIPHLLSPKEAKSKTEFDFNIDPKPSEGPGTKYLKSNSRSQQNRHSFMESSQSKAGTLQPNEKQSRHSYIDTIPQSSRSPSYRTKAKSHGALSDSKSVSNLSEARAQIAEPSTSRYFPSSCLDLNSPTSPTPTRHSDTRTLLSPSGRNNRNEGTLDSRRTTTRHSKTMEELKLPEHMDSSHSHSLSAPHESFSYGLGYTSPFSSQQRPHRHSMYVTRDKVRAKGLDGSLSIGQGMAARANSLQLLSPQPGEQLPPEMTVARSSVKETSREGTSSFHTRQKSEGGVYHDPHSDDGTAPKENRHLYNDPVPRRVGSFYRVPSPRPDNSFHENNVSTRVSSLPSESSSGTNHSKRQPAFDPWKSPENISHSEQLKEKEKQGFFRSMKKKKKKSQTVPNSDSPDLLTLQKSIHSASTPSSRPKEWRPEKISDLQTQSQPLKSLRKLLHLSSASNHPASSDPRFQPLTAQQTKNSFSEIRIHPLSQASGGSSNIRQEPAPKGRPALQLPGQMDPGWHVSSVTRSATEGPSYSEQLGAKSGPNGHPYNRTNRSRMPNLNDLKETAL

[4] = target: Serine/threonine-protein kinase SIK2 (Homo sapiens) (UniProt Q9H0K1); test: Selectivity interaction (KinomeScan (DiscoverX)) EUB0000618a SIK2; conditions: at 10 µM
Sequence of Serine/threonine-protein kinase SIK2 (Homo sapiens) (Q9H0K1 whole entry, looked up): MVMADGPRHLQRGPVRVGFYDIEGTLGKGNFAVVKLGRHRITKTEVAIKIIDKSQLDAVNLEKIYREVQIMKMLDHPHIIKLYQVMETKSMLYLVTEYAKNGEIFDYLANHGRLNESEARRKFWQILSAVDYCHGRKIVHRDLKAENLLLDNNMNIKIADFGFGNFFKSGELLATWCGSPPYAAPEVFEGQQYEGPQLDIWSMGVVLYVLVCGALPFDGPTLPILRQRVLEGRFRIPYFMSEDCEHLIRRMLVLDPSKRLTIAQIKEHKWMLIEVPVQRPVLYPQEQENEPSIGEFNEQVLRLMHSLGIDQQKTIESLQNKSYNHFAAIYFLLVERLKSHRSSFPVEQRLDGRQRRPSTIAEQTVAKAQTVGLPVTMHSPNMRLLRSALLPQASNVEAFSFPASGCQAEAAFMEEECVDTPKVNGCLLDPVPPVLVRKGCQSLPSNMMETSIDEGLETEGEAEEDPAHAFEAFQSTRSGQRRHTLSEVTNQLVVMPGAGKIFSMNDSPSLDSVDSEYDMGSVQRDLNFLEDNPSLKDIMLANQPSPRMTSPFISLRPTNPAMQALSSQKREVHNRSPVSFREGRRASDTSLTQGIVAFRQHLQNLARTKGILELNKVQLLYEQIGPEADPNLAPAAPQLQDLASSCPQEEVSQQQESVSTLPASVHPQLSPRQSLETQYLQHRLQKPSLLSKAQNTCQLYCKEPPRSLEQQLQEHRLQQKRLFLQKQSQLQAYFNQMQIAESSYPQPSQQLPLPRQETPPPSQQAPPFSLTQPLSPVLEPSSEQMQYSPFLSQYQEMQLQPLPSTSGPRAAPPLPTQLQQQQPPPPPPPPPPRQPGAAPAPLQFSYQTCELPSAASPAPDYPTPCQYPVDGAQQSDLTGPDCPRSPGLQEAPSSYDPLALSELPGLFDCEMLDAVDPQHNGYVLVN

[5] = target: T4, Dual specificity mitogen-activated protein kinase kinase 4 (Homo sapiens) (UniProt P45985); test: Selectivity interaction (ActivX KiNativ screen (kinase selectivity in THP-1 cell lysates)) EUB0000639a MAP2K4; format: subcellular; conditions: lysate, at 5 µM
T4 sequence (whole entry): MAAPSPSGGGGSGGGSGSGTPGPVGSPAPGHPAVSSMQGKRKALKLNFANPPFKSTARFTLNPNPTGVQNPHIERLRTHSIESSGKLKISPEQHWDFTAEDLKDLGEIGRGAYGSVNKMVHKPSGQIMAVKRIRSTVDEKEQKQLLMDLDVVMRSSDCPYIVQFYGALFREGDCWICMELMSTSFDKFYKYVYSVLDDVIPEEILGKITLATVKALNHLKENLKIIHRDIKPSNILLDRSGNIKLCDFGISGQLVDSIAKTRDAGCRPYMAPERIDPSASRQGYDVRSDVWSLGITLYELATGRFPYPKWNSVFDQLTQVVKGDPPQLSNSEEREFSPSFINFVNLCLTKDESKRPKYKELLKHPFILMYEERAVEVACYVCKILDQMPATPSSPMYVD

[6] = Selectivity interaction (Ambit KINOMEscan and KiNATiv profiling in Jurkat cells) EUB0000090b CDPK1; conditions: Selectivity number of off-targets 9; Selectivity number of targets 456; Source Knowledge https://www.nature.com/articles/nchembio.2166; at 1 µM

Q: What does the source list for `C=CC(=O)Nc1cc(-n2c(=O)ccc3cnc4ccc(-c5ccc(NS(C)(=O)=O)cc5)cc4c32)ccc1C`?
A: % of control ([1]; at 1 µM): 87%; % of control ([1]; at 10 µM): 100%

Q: Which % of control [2] does the source give for `Nc1cnc(N2CCc3cc(S(=O)(=O)Nc4c(F)cc(Cl)cc4F)cc(N4CCCC4=O)c32)nc1` [TP-020n] here?
A: 100%

Q: Which % of control [3] does the source give for `N#Cc1cccc(-c2c[nH]c3ncnc(N4CCOCC4)c23)c1` here?
A: 100%

Q: Which % of control [4] does the source give for `O[C@H]1CC[C@H](Nc2ncc3nc(Nc4c(F)cc(F)cc4F)n([C@H]4CCOC4)c3n2)CC1` here?
A: 33%

Q: For `CC[C@@H]1[C@H](F)C(=O)N[C@@H]1COc1nccc2cc(C(N)=O)c(OC)cc12` [ZIMLOVISERTIB], which % of inhibition [5] is on record?
A: 29.6%

Q: For `CN(C)C/C=C/C(=O)Nc1ccc(C(=O)N2CCCC(Nc3ncc(Cl)c(-c4c[nH]c5ccccc45)n3)C2)cc1` (configuration not stated), which “% of control” value [6] is on record?
A: 7%
